The results in this text go back to patent publication US8828997B2, “2,3-dihydro-1H-imidazo(1,2-a)pyrimidin-5-one derivatives, preparation thereof, and pharmaceutical use thereof” (Sanofi, priority 2009, dated 2014).

Test [1] relates to translocation of the LC3 protein in Hela GFP-LC3 cells. As to the kind of experiment: Translocation of the LC3 protein in Hela human cells measured by image analysis cytometry (test C, autophagy). The format is cell-based. The settings on record: Homo sapiens, HeLa, 2 h, EBSS + 10 μM hydroxychloroquine, cells with LC3 granulations, absolute IC50. In short, it runs like this:
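HeLa clone stably expressing GFP-LC3, starved in EBSS with 10 μM hydroxychloroquine plus compound (10 nM to 1 μM range, 0.1% DMSO) for 2 h at 37 °C. After PFA fixation and Hoechst staining, LC3 translocation read by image analysis cytometry; IC50 from dose-response curves, mean of 2 independent experiments.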

Test [2] has as its system P. falciparum (highly chloroquine-resistant strain Fcm29-Cameroon). As to the kind of experiment: Antimalarial activity test (radioactive micromethod of Desjardins, tritiated hypoxanthine incorporation). The format is cell-based. The settings on record: Plasmodium falciparum, Erythrocyte, infected human erythrocytes, 48 h. Put shortly:
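P. falciparum cultured in infected human erythrocytes (2% haematocrit, 1.5% parasitaemia) in RPMI 1640 with 5% human serum and 1% DMSO, exposed to compound for 48 h at 37 °C, 5% CO2. Tritiated hypoxanthine added at 24 h; growth inhibition versus drug-free incorporation, reported as % at 1 μM and 0.1 μM.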

The structures appear in SMILES notation.

Take `COc1ccc(CCN2c3nc(N4CCOCC4)cc(=O)n3C[C@@]2(C)C(F)(F)F)cc1` [Example 1, (S)-1-[2-(4-Methoxyphenyl)ethyl]-2-methyl-7-morpholin-4-yl-2-trifluoromethyl-2,3-dihydro-1H-imidazo[1,2-a]pyrimidin-5-one]: in test [1], the IC50 was determined as 44 nM. Moreover, the inhibition at 0.1 µM in test [2] (0.1 μM) was found to be 67%. For the same compound, in test [2] (1 μM), the inhibition at 1 µM worked out at 93%.
